The values below come from patent US10040781B2, “Tank-binding kinase inhibitor compounds” (Gilead Sciences, Inc., priority 2014, dated 2018).

One assay addresses hJAK2 (Homo sapiens (Human), UniProt O60674). Briefly: hJAK2 LANCE TR-FRET enzymatic assay. It is filed as biochemical. To be noted: read-out: JAK2 IC50. For orientation: In TR-FRET formats the signal depends on donor and acceptor labels being close together.
A further assay addresses TBK1 (Homo sapiens (Human), UniProt Q9UHD2). Put plainly: TBK1 TR-FRET enzymatic assay.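 Note: phosphorylation of a biotinylated Ser/Thr peptide by purified full-length recombinant TBK1, read by TR-FRET after 240 min at 25 °C, IC50 is the geometric mean of at least four runs.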
The target of another assay is IKKε (Homo sapiens (Human), UniProt Q14164). Briefly: IKKε TR-FRET enzymatic assay. The class given is biochemical. To be noted: read-out: IKKe IC50.
Chain of IKKε (Q14164 whole entry): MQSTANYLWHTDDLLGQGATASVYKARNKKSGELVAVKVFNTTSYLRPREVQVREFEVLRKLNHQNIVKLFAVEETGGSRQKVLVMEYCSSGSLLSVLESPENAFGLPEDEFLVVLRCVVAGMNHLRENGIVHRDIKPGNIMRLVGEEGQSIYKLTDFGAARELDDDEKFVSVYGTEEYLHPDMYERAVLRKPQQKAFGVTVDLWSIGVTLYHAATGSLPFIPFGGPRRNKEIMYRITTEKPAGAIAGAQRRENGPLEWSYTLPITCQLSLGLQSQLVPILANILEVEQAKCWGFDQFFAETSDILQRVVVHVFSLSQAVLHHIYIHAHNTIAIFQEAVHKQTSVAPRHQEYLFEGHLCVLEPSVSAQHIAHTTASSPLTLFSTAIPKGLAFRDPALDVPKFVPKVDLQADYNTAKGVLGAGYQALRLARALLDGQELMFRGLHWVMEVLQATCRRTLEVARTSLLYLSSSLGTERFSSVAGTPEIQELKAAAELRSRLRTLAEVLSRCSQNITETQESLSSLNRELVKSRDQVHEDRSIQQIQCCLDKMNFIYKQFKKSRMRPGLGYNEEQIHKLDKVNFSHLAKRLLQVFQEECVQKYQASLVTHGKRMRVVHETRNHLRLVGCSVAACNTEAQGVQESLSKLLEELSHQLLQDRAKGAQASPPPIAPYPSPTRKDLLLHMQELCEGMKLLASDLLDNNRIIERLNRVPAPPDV

Chain of TBK1 (Q9UHD2 whole entry): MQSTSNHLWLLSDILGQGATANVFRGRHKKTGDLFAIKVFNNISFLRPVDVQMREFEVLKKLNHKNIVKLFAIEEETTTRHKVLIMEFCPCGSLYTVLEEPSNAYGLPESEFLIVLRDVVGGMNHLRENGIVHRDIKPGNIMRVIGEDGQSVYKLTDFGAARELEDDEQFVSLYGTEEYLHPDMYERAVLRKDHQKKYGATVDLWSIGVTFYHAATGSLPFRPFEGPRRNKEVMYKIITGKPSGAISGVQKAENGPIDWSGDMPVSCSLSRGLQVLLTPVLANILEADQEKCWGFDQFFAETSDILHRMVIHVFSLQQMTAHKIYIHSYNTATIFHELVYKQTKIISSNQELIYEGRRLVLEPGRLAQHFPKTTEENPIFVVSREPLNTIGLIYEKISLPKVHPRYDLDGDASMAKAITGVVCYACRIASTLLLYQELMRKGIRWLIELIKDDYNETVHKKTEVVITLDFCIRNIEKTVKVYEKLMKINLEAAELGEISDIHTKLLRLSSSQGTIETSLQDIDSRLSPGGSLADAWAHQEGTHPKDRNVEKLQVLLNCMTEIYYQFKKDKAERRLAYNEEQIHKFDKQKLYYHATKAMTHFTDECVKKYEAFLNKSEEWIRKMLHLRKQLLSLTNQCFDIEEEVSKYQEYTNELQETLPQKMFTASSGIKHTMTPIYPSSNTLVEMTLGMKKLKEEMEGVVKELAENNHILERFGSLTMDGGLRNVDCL
Chain of hJAK2 (O60674 whole entry): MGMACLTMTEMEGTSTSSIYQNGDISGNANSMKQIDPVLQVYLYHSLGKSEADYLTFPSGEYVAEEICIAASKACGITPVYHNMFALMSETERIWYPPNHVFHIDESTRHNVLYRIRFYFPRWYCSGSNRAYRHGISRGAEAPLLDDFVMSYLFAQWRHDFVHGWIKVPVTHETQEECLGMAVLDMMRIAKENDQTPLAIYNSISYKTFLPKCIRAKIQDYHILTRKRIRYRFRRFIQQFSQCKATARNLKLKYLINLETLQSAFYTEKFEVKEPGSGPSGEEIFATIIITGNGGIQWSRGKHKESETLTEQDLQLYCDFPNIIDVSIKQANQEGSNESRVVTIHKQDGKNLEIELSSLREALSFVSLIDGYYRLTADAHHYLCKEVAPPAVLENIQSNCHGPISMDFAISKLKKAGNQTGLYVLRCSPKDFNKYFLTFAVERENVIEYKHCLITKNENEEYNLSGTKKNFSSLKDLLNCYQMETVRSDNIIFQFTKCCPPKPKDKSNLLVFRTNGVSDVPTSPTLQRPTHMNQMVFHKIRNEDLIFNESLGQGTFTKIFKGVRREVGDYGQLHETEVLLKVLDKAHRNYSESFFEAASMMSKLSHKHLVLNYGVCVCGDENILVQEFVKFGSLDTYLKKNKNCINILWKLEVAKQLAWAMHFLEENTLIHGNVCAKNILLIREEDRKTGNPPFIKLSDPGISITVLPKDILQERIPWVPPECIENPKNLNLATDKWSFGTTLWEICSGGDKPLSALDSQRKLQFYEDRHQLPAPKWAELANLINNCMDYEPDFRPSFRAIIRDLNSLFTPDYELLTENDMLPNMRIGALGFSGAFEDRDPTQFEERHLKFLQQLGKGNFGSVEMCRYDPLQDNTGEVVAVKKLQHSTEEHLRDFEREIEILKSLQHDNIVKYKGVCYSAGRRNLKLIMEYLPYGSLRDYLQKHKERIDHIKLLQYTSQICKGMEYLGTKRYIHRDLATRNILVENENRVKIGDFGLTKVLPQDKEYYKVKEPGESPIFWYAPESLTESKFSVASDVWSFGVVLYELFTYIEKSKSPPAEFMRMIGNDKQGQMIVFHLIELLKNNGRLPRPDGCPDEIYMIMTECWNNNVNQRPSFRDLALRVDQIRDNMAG
Description for TBK1: Enzymatic activity of IKKε and TBK1 was measured using a homogeneous time resolved fluorescence resonance energy transfer (TR-FRET) assay that monitors enzyme dependent phosphorylation of a biotinylated serine/threonine peptide substrate. […] TBK1 and IKKε were expressed and purified as full length recombinant proteins. Detection reagents for the assay were purchased from Cisbio. […] After an assay reaction time of 240 minutes at 25° C., reactions were terminated with EDTA.
All IC50 values represent geometric mean values of a minimum of four determinations.

Usually IC50 stands for the concentration at which inhibition is half-maximal. `COC1CN(c2ccc(-c3ncnc(Nc4ccc(N5CCN(C6COC6)CC5)cc4)n3)cc2C#N)C1` [Example 269, 2-(3-methoxyazetidin-1-yl)-5-(4-((4-(4-(oxetan-3-yl)piperazin-1-yl)phenyl)amino)-1,3,5-triazin-2-yl)benzonitrile]: the IC50 on hJAK2 amounted to 219 nM; at TBK1, 13 nM; at IKKε, 25 nM.
On the same counts, the results for `N#Cc1cc(-c2ncnc(Nc3ccc(N4CCN(C5COC5)CC4)cc3)n2)cc(F)c1OC1CCS(=O)(=O)CC1` [Example 271, 2-((1,1-dioxidotetrahydro-2H-thiopyran-4-yl)oxy)-3-fluoro-5-(4-((4-(4-(oxetan-3-yl)piperazin-1-yl)phenyl)amino)-1,3,5-triazin-2-yl)benzonitrile] are no less than 1000 nM, 18 nM and 110 nM.
As for `CS(=O)(=O)C1CN(c2ccc(-c3ncnc(Nc4ccc(N5CCN(C6COC6)CC5)cc4)n3)cc2C#N)C1` [Example 272, 2-(3-(methylsulfonyl)azetidin-1-yl)-5-(4-((4-(4-(oxetan-3-yl)piperazin-1-yl)phenyl)amino)-1,3,5-triazin-2-yl)benzonitrile], the IC50 at hJAK2 was 68 nM; against TBK1 it was 28 nM; on IKKε it was 53 nM.
As to `CS(=O)(=O)N1CC(Oc2ccc(-c3ncnc(Nc4ccc(N5CCN(C6COC6)CC5)cc4)n3)cc2C#N)C1` [Example 273, 2-((1-(methylsulfonyl)azetidin-3-yl)oxy)-5-(4-((4-(4-(oxetan-3-yl)piperazin-1-yl)phenyl)amino)-1,3,5-triazin-2-yl)benzonitrile], the IC50 at hJAK2 was determined as 133 nM; against TBK1 it was 139 nM; on IKKε, 285 nM.
Regarding `N#Cc1cc(-c2ncnc(Nc3ccc(N4CCN(C5COC5)CC4)cc3)n2)ccc1OC1CN(C(=O)CO)C1` [Example 274, 2-((1-(2-hydroxyacetyl)azetidin-3-yl)oxy)-5-(4-((4-(4-(oxetan-3-yl)piperazin-1-yl)phenyl)amino)-1,3,5-triazin-2-yl)benzonitrile], the IC50 on hJAK2 is no less than 1000 nM; on TBK1 it was 47 nM; on IKKε it was no less than 1000 nM.
Turning to `N#Cc1cc(-c2ncnc(Nc3ccc4oc(=O)[nH]c4c3)n2)ccc1OC1CCOCC1` [Example 277, 5-(4-((2-oxo-2,3-dihydrobenzo[d]oxazol-5-yl)amino)-1,3,5-triazin-2-yl)-2-((tetrahydro-2H-pyran-4-yl)oxy)benzonitrile], the results for the IC50 at hJAK2, against TBK1 and on IKKε were no less than 1000 nM, 18 nM and 47 nM, respectively.
Turning to `CC1(C)C(=O)Nc2ccc(Nc3ncnc(-c4ccc(OC5CCOCC5)c(C#N)c4)n3)cc21` [Example 278, 5-(4-((3,3-dimethyl-2-oxoindolin-5-yl)amino)-1,3,5-triazin-2-yl)-2-((tetrahydro-2H-pyran-4-yl)oxy)benzonitrile], the IC50 on hJAK2 came to 541 nM; on TBK1, 4 nM; at IKKε, 9 nM.
On the same counts, the results for `N#Cc1cc(-c2ncnc(Nc3ccc(N4CCN(C5COC5)CC4)cc3)n2)ccc1OC1CCC2(CC1)OCCO2` [Example 279, 2-(1,4-dioxaspiro[4.5]decan-8-yloxy)-5-(4-((4-(4-(oxetan-3-yl)piperazin-1-yl)phenyl)amino)-1,3,5-triazin-2-yl)benzonitrile] are no less than 1000 nM, 27 nM and 75 nM.
Take `N#Cc1cc(-c2ncnc(Nc3ccc(N4CCN(C5COC5)CC4)cc3)n2)ccc1OCC1(F)COC1` [Example 280, 2-((3-fluorooxetan-3-yl)methoxy)-5-(4-((4-(4-(oxetan-3-yl)piperazin-1-yl)phenyl)amino)-1,3,5-triazin-2-yl)benzonitrile]: the IC50 at hJAK2 is 110 nM; at TBK1, 4 nM; on IKKε, 10 nM.
In the case of `COc1cc(Nc2ncnc(-c3ccc(OC4CCN(C(=O)[C@H](C)O)CC4)c(C#N)c3)n2)ccc1N1CCN(C2COC2)CC1` [Example 281, (S)-2-((1-(2-hydroxypropanoyl)piperidin-4-yl)oxy)-5-(4-((3-methoxy-4-(4-(oxetan-3-yl)piperazin-1-yl)phenyl)amino)-1,3,5-triazin-2-yl)benzonitrile], the IC50 at hJAK2 came to 185 nM; on TBK1, 2 nM; on IKKε, 8 nM.
For `C[C@H](Oc1ccc(-c2ncnc(Nc3ccc(N4CCN(C5COC5)CC4)cc3)n2)cc1C#N)C1CCOCC1` [Example 282, (S)-5-(4-((4-(4-(oxetan-3-yl)piperazin-1-yl)phenyl)amino)-1,3,5-triazin-2-yl)-2-(1-(tetrahydro-2H-pyran-4-yl)ethoxy)benzonitrile], the IC50 on hJAK2 stood at 219 nM; against TBK1, 14 nM; at IKKε, 16 nM.
On the same counts, the results for `C[C@@H](Oc1ccc(-c2ncnc(Nc3ccc(N4CCN(C5COC5)CC4)cc3)n2)cc1C#N)C1CCOCC1` [Example 283, (R)-5-(4-((4-(4-(oxetan-3-yl)piperazin-1-yl)phenyl)amino)-1,3,5-triazin-2-yl)-2-(1-(tetrahydro-2H-pyran-4-yl)ethoxy)benzonitrile] are 450 nM, 22 nM and 115 nM.
Turning to `N#Cc1cc(-c2ncnc(Nc3ccc(N4CCN(C5COC5)CC4)cc3)n2)ccc1OCC1CCOCC1` [Example 285, 5-(4-((4-(4-(oxetan-3-yl)piperazin-1-yl)phenyl)amino)-1,3,5-triazin-2-yl)-2-((tetrahydro-2H-pyran-4-yl)methoxy)benzonitrile], the IC50 on hJAK2 was determined as 313 nM; against TBK1, 4 nM; on IKKε, 8 nM.
As to `CC(C)[C@H](Oc1ccc(-c2ncnc(Nc3ccc(N4CCN(C5COC5)CC4)cc3)n2)cc1C#N)C(N)=O` [Example 286, (S)-2-(2-cyano-4-(4-((4-(4-(oxetan-3-yl)piperazin-1-yl)phenyl)amino)-1,3,5-triazin-2-yl)phenoxy)-3-methylbutanamide], the IC50 on hJAK2 was no less than 1000 nM; on TBK1 it was 94 nM; at IKKε it was 237 nM.
Take `N#Cc1cc(-c2ncnc(Nc3ccc(N4CC(O)C4)nc3)n2)ccc1OC1CCOCC1` [Example 287, 5-(4-((6-(3-hydroxyazetidin-1-yl)pyridin-3-yl)amino)-1,3,5-triazin-2-yl)-2-((tetrahydro-2H-pyran-4-yl)oxy)benzonitrile]: the IC50 on hJAK2 was no less than 1000 nM; at TBK1, 15 nM; at IKKε, 20 nM.
For `N#Cc1cc(-c2ncnc(Nc3ccc(N4CCN(C5COC5)CC4)cc3)n2)ccc1O[C@H]1CCN(C(=O)C(F)F)C[C@H]1F` [Example 288, 2-(((3R,4S)-1-(2,2-difluoroacetyl)-3-fluoropiperidin-4-yl)oxy)-5-(4-((4-(4-(oxetan-3-yl)piperazin-1-yl)phenyl)amino)-1,3,5-triazin-2-yl)benzonitrile], the IC50 at hJAK2 came out at 316 nM; at TBK1 it was 3 nM; at IKKε, 2 nM.
As for `CC(=O)N1CC[C@H](Oc2ccc(-c3ncnc(Nc4ccc(N5CCN(C6COC6)CC5)cc4)n3)cc2C#N)[C@H](F)C1` [Example 289, 2-(((3R,4S)-1-acetyl-3-fluoropiperidin-4-yl)oxy)-5-(4-((4-(4-(oxetan-3-yl)piperazin-1-yl)phenyl)amino)-1,3,5-triazin-2-yl)benzonitrile], the IC50 on hJAK2 amounted to 444 nM; on TBK1 it was 4 nM; at IKKε it was 5 nM.
Consider `N#Cc1cc(-c2ncnc(Nc3ccc(N4CCN(C5COC5)CC4)cc3)n2)ccc1O[C@H]1CCCC[C@H]1N` [Example 291, 2-(((1S,2R)-2-aminocyclohexyl)oxy)-5-(4-((4-(4-(oxetan-3-yl)piperazin-1-yl)phenyl)amino)-1,3,5-triazin-2-yl)benzonitrile], for which the IC50 on hJAK2 was determined as 474 nM; against TBK1, 266 nM; at IKKε it was 603 nM.
Take `C[C@H](O)C(=O)N1CC[C@H](Oc2ccc(-c3ncnc(Nc4ccc(C5CCOCC5)cc4)n3)cc2C#N)[C@H](F)C1` [Example 293, 2-(((3R,4S)-3-fluoro-1-((S)-2-hydroxypropanoyl)piperidin-4-yl)oxy)-5-(4-((4-(tetrahydro-2H-pyran-4-yl)phenyl)amino)-1,3,5-triazin-2-yl)benzonitrile]: the IC50 on hJAK2 was no less than 1000 nM; on TBK1, 3 nM; on IKKε, 2 nM.
As to `C[C@H](O)C(=O)N1CC[C@H](Oc2ccc(-c3ncnc(Nc4cnn(C(C)(C)C)c4)n3)cc2C#N)[C@H](F)C1` [Example 294, 5-(4-((1-(tert-butyl)-1H-pyrazol-4-yl)amino)-1,3,5-triazin-2-yl)-2-(((3R,4S)-3-fluoro-1-((S)-2-hydroxypropanoyl)piperidin-4-yl)oxy)benzonitrile], the IC50 on hJAK2 amounted to 228 nM; at TBK1, 4 nM; at IKKε, 5 nM.
`N#Cc1cc(-c2ncnc(Nc3ccc(N4CCNCC4)c(F)c3)n2)ccc1O[C@H]1CCN(C=O)C[C@H]1F` [Example 296, 2-(((3R,4S)-3-fluoro-1-formylpiperidin-4-yl)oxy)-5-(4-((3-fluoro-4-(piperazin-1-yl)phenyl)amino)-1,3,5-triazin-2-yl)benzonitrile]: the IC50 on hJAK2 is 274 nM; at TBK1 it was 3 nM; at IKKε it was 1 nM.
On the same counts, the results for `N#Cc1cc(-c2ncnc(Nc3ccc(N4CCN(C5COC5)CC4)cc3)n2)ccc1O[C@H]1CCOC[C@H]1F` [Example 297, 2-(((3R,4S)-3-fluorotetrahydro-2H-pyran-4-yl)oxy)-5-(4-((4-(4-(oxetan-3-yl)piperazin-1-yl)phenyl)amino)-1,3,5-triazin-2-yl)benzonitrile] are 397 nM, 2 nM and 4 nM.
On to `N#Cc1cc(-c2ncnc(Nc3ccc(N4CCN(C=O)CC4)c(F)c3)n2)ccc1O[C@H]1CCOC[C@H]1F` [Example 299, 5-(4-((3-fluoro-4-(4-formylpiperazin-1-yl)phenyl)amino)-1,3,5-triazin-2-yl)-2-(((3R,4S)-3-fluorotetrahydro-2H-pyran-4-yl)oxy)benzonitrile], for which the IC50 was found to be 401 nM on hJAK2, 4 nM against TBK1 and 8 nM on IKKε.
